According to ChEMBL document CHEMBL4619712, “Double-component diazeniumdiolate derivatives as anti-cancer agents” (Bioorg Med Chem, 2020):
The source made the active and inactive calls. The rule behind the calls is not given here.

Legend:
[1] = system: CCRF-CEM; assay: Induction of apoptosis in human CCRF-CEM cells assessed as increase in Bax level after 72 hrs by western blot analysis; assay type: functional, cell-based
[2] = system: CCRF-CEM; assay: Induction of apoptosis in human CCRF-CEM cells assessed as necrotic cells at 8 uM after 24 hrs by Annexin V/propidium iodide staining based flow cytometry (reference value: 0.11%); assay type: functional
[3] = system: CCRF-CEM; assay: Cell cycle arrest in human CCRF-CEM cells assessed as accumulation of cells at G2/M phase at 8 uM after 72 hrs by RNAse/propidium iodide staining based flow cytometry (reference value: 25.6%); assay type: functional
[4] = system: CCRF-CEM; assay: Cell cycle arrest in human CCRF-CEM cells assessed as accumulation of cells at S phase at 8 uM after 72 hrs by RNAse/propidium iodide staining based flow cytometry (reference value: 46%); assay type: functional
[5] = system: CCRF-CEM; assay: Induction of apoptosis in human CCRF-CEM cells assessed as late apoptotic cells at 2 uM after 72 hrs by Annexin V/propidium iodide staining based flow cytometry (reference value: 8.60%); assay type: functional
[6] = target: T1, c-Jun N-terminal kinase, JNK (Homo sapiens) (UniProt P45983+P53779+P45984); assay: Activation of JNK in human CCRF-CEM cells assessed as increase in phosphorylated JNK level at 8 uM incubated for 1 to 6 hrs by Western blot analysis; assay type: cell-based
[7] = system: CCRF-CEM; assay: Cell cycle arrest in human CCRF-CEM cells assessed as accumulation of cells at sub G1 phase at 8 uM after 72 hrs by RNAse/propidium iodide staining based flow cytometry (reference value: 0.1%); assay type: functional
[8] = system: CCRF-CEM; assay: Induction of apoptosis in human CCRF-CEM cells assessed as viable cells at 4 uM after 72 hrs by Annexin V/propidium iodide staining based flow cytometry (reference value: 90.4%); assay type: functional; details: read-out: Activity
[9] = system: CCRF-CEM; assay: Induction of apoptosis in human CCRF-CEM cells assessed as early apoptotic cells at 8 uM after 8 hrs by Annexin V/propidium iodide staining based flow cytometry (reference value: 0.87%); assay type: functional
[10] = system: CCRF-CEM; assay: Induction of apoptosis in human CCRF-CEM cells assessed as necrotic cells at 8 uM after 48 hrs by Annexin V/propidium iodide staining based flow cytometry (reference value: 0.11%); assay type: functional
[11] = system: CCRF-CEM; assay: Induction of apoptosis in human CCRF-CEM cells assessed as late apoptotic cells at 8 uM after 24 hrs by Annexin V/propidium iodide staining based flow cytometry (reference value: 8.60%); assay type: functional
[12] = system: CCRF-CEM; assay: Induction of apoptosis in human CCRF-CEM cells assessed as decrease in Bcl-2 level after 72 hrs by western blot analysis; assay type: functional, cell-based
[13] = system: CCRF-CEM; assay: Induction of apoptosis in human CCRF-CEM cells assessed as early apoptotic cells at 8 uM after 24 hrs by Annexin V/propidium iodide staining based flow cytometry (reference value: 0.87%); assay type: functional
[14] = system: CCRF-CEM; assay: Induction of apoptosis in human CCRF-CEM cells assessed as early apoptotic cells at 16 uM after 72 hrs by Annexin V/propidium iodide staining based flow cytometry (reference value: 0.87%); assay type: functional
[15] = system: CCRF-CEM; assay: Cell cycle arrest in human CCRF-CEM cells assessed as accumulation of cells at G1/G0 phase at 8 uM after 72 hrs by RNAse/propidium iodide staining based flow cytometry (reference value: 28.3%); assay type: functional
[16] = system: CCRF-CEM; assay: Cell cycle arrest in human CCRF-CEM cells assessed as accumulation of cells at S phase at 8 uM after 48 hrs by RNAse/propidium iodide staining based flow cytometry (reference value: 46%); assay type: functional
[17] = system: CCRF-CEM; assay: Cell cycle arrest in human CCRF-CEM cells assessed as accumulation of cells at sub G1 phase at 8 uM after 24 hrs by RNAse/propidium iodide staining based flow cytometry (reference value: 0.1%); assay type: functional
[18] = system: CCRF-CEM; assay: Induction of apoptosis in human CCRF-CEM cells assessed as viable cells at 8 uM after 48 hrs by Annexin V/propidium iodide staining based flow cytometry (reference value: 90.4%); assay type: functional; details: read-out: Activity
[19] = system: CCRF-CEM; assay: Induction of apoptosis in human CCRF-CEM cells at 8 uM by Annexin V-FITC/propidium iodide staining based flow cytometry; assay type: functional, cell-based; details: TDE = time-dependent effect
[20] = system: CCRF-CEM; assay: (§1) Induction of apoptosis in human CCRF-CEM cells assessed as early apoptotic cells at 8 uM after 72 hrs by Annexin V/propidium iodide staining based flow cytometry (reference value: 0.87%); assay type: functional
[21] = system: CCRF-CEM; assay: Induction of apoptosis in human CCRF-CEM cells assessed as late apoptotic cells at 8 uM after 8 hrs by Annexin V/propidium iodide staining based flow cytometry (reference value: 8.60%); assay type: functional
[22] = system: CCRF-CEM; assay: Induction of apoptosis in human CCRF-CEM cells assessed as viable cells at 8 uM after 24 hrs by Annexin V/propidium iodide staining based flow cytometry (reference value: 90.4%); assay type: functional; details: read-out: Activity
[23] = system: CCRF-CEM; assay: as §1; assay type: functional; remark: listed apart in the source
[24] = system: CCRF-CEM; assay: Induction of apoptosis in human CCRF-CEM cells after 72 hrs by Annexin V-FITC/propidium iodide staining based flow cytometry; assay type: functional, cell-based
[25] = system: CCRF-CEM; assay: (§2) Induction of apoptosis in human CCRF-CEM cells assessed as viable cells at 8 uM after 72 hrs by Annexin V/propidium iodide staining based flow cytometry (reference value: 90.4%); assay type: functional; details: read-out: Activity
[26] = system: CCRF-CEM; assay: Induction of apoptosis in human CCRF-CEM cells assessed as late apoptotic cells at 4 uM after 72 hrs by Annexin V/propidium iodide staining based flow cytometry (reference value: 8.60%); assay type: functional
[27] = system: CCRF-CEM; assay: Cell cycle arrest in human CCRF-CEM cells assessed as accumulation of cells at S phase at 8 uM after 24 hrs by RNAse/propidium iodide staining based flow cytometry (reference value: 46%); assay type: functional
[28] = system: CCRF-CEM; assay: Induction of apoptosis in human CCRF-CEM cells assessed as increase in Bax level at 8 uM by Western blot analysis; assay type: functional, cell-based; details: TDE = time-dependent effect
[29] = system: CCRF-CEM; assay: (§3) Induction of apoptosis in human CCRF-CEM cells assessed as necrotic cells at 8 uM after 72 hrs by Annexin V/propidium iodide staining based flow cytometry (reference value: 0.11%); assay type: functional
[30] = system: CCRF-CEM; assay: Cell cycle arrest in human CCRF-CEM cells assessed as accumulation of cells at sub G1 phase at 8 uM after 48 hrs by RNAse/propidium iodide staining based flow cytometry (reference value: 0.1%); assay type: functional
[31] = system: CCRF-CEM; assay: (§4) Induction of apoptosis in human CCRF-CEM cells assessed as late apoptotic cells at 8 uM after 72 hrs by Annexin V/propidium iodide staining based flow cytometry (reference value: 8.60%); assay type: functional
[32] = system: CCRF-CEM; assay: Induction of apoptosis in human CCRF-CEM cells assessed as decrease in Bcl-2 level at 8 uM by Western blot analysis; assay type: functional, cell-based; details: TDE = time-dependent effect
[33] = system: CCRF-CEM; assay: as §4; assay type: functional; remark: listed apart in the source
[34] = system: CCRF-CEM; assay: Induction of apoptosis in human CCRF-CEM cells assessed as viable cells at 2 uM after 72 hrs by Annexin V/propidium iodide staining based flow cytometry (reference value: 90.4%); assay type: functional; details: read-out: Activity
[35] = system: CCRF-CEM; assay: Cell cycle arrest in human CCRF-CEM cells assessed as accumulation of cells at G2/M phase at 8 uM after 48 hrs by RNAse/propidium iodide staining based flow cytometry (reference value: 25.6%); assay type: functional
[36] = system: CCRF-CEM; assay: Induction of apoptosis in human CCRF-CEM cells assessed as viable cells at 16 uM after 72 hrs by Annexin V/propidium iodide staining based flow cytometry (reference value: 90.4%); assay type: functional; details: read-out: Activity
[37] = system: CCRF-CEM; assay: Induction of apoptosis in human CCRF-CEM cells assessed as early apoptotic cells at 2 uM after 72 hrs by Annexin V/propidium iodide staining based flow cytometry (reference value: 0.87%); assay type: functional
[38] = system: CCRF-CEM; assay: Induction of apoptosis in human CCRF-CEM cells assessed as necrotic cells at 4 uM after 72 hrs by Annexin V/propidium iodide staining based flow cytometry (reference value: 0.11%); assay type: functional
[39] = system: CCRF-CEM; assay: Cell cycle arrest in human CCRF-CEM cells assessed as accumulation of cells at G2/M phase at 8 uM after 24 hrs by RNAse/propidium iodide staining based flow cytometry (reference value: 25.6%); assay type: functional
[40] = system: CCRF-CEM; assay: as §2; assay type: functional; details: read-out: Activity; remark: listed apart in the source
[41] = target: T1, c-Jun N-terminal kinase, JNK (Homo sapiens); assay: Activation of JNK in human CCRF-CEM cells assessed as increase in JNK level at 8 uM incubated for 1 to 6 hrs by Western blot analysis; assay type: cell-based
[42] = system: CCRF-CEM; assay: Cell cycle arrest in human CCRF-CEM cells assessed as accumulation of cells at G1/G0 phase at 8 uM after 48 hrs by RNAse/propidium iodide staining based flow cytometry (reference value: 28.3%); assay type: functional
[43] = target: T2, MAP kinase p38 (Homo sapiens) (UniProt O15264+Q15759+Q16539+P53778); assay: Activation of p38 in human CCRF-CEM cells assessed as increase in p38 level at 8 uM incubated for 1 to 6 hrs by Western blot analysis; assay type: cell-based
[44] = target: T2, MAP kinase p38 (Homo sapiens); assay: Activation of p38 in human CCRF-CEM cells assessed as increase in phosphorylated p38 level at 8 uM incubated for 1 to 6 hrs by Western blot analysis; assay type: cell-based
[45] = system: CCRF-CEM; assay: Induction of apoptosis in human CCRF-CEM cells assessed as late apoptotic cells at 8 uM after 48 hrs by Annexin V/propidium iodide staining based flow cytometry (reference value: 8.60%); assay type: functional
[46] = system: CCRF-CEM; assay: Induction of apoptosis in human CCRF-CEM cells assessed as necrotic cells at 2 uM after 72 hrs by Annexin V/propidium iodide staining based flow cytometry (reference value: 0.11%); assay type: functional
[47] = system: CCRF-CEM; assay: Induction of apoptosis in human CCRF-CEM cells assessed as early apoptotic cells at 8 uM after 48 hrs by Annexin V/propidium iodide staining based flow cytometry (reference value: 0.87%); assay type: functional
[48] = system: CCRF-CEM; assay: as §3; assay type: functional; remark: listed apart in the source
[49] = system: CCRF-CEM; assay: Induction of apoptosis in human CCRF-CEM cells assessed as early apoptotic cells at 4 uM after 72 hrs by Annexin V/propidium iodide staining based flow cytometry (reference value: 0.87%); assay type: functional
[50] = system: CCRF-CEM; assay: Induction of apoptosis in human CCRF-CEM cells assessed as necrotic cells at 16 uM after 72 hrs by Annexin V/propidium iodide staining based flow cytometry (reference value: 0.11%); assay type: functional
[51] = system: CCRF-CEM; assay: Induction of apoptosis in human CCRF-CEM cells assessed as viable cells at 8 uM after 8 hrs by Annexin V/propidium iodide staining based flow cytometry (reference value: 90.4%); assay type: functional; details: read-out: Activity
[52] = system: CCRF-CEM; assay: Cell cycle arrest in human CCRF-CEM cells assessed as accumulation of cells at G1/G0 phase at 8 uM after 24 hrs by RNAse/propidium iodide staining based flow cytometry (reference value: 28.3%); assay type: functional
[53] = system: CCRF-CEM; assay: Induction of apoptosis in human CCRF-CEM cells assessed as necrotic cells at 8 uM after 8 hrs by Annexin V/propidium iodide staining based flow cytometry (reference value: 0.11%); assay type: functional
[54] = system: CCRF-CEM; assay: Induction of apoptosis in human CCRF-CEM cells assessed as late apoptotic cells at 16 uM after 72 hrs by Annexin V/propidium iodide staining based flow cytometry (reference value: 8.60%); assay type: functional

O=[N+]([O-])c1ccc(O/N=[N+](\[O-])N2CCC(CN3CCN(/[N+]([O-])=N/Oc4ccc([N+](=O)[O-])cc4[N+](=O)[O-])CC3)CC2)c([N+](=O)[O-])c1
Activity [1]: Dose-dependent effect
Activity [2]: 0.072%
Activity [3]: 63.7%
Activity [4]: 0%
Activity [5]: 9.53%
Activity [6]: Active
Activity [7]: 7.5%
viability at 4 µM [8]: 77.9%
Activity [9]: 13.8%
Activity [10]: 0.058%
Activity [11]: 27.9%
Activity [12]: Dose-dependent effect
Activity [13]: 7.03%
Activity [14]: 3.64%
Activity [15]: 28.8%
Activity [16]: 8.2%
Activity [17]: 3.5%
viability at 8 µM [18]: 43.6%
Activity [19]: Tde
Activity [20]: 8.93%
Activity [21]: 24.3%
viability at 8 µM [22]: 65%
Activity [23]: 4.93%
Activity [24]: Dose-dependent effect
viability at 8 µM [25]: 42.5%
Activity [26]: 10.6%
Activity [27]: 26.3%
Activity [28]: Tde
Activity [29]: 0.077%
Activity [30]: 8.4%
Activity [31]: 52.5%
Activity [32]: Tde
Activity [33]: 56.2%
viability at 2 µM [34]: 87.5%
Activity [35]: 54.5%
viability at 16 µM [36]: 0.63%
Activity [37]: 3%
Activity [38]: 0.028%
Activity [39]: 45.7%
viability at 8 µM [40]: 34.8%
Activity [41]: Active
Activity [42]: 28.9%
Activity [43]: Active
Activity [44]: Active
Activity [45]: 49.8%
Activity [46]: 0.015%
Activity [47]: 6.51%
Activity [48]: 0.11%
Activity [49]: 3.53%
Activity [50]: 0.08%
viability at 8 µM [51]: 61.5%
Activity [52]: 24.5%
Activity [53]: 0.38%
Activity [54]: 95.6%
